Measured values published in ChEMBL document CHEMBL1201862, “PubChem BioAssay data set” (2004).
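Interpolation was linear, between the two tested concentrations surrounding the appropriate level; five concentrations were tested over 48 hours in 96-well plates. GI50 = concentration required for 50% inhibition of growth.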 Calls of active or inactive are those of the source. Rule as the data show it: active = GI50 up to about 1.1 µM and inactive = higher.

Key:
Test in all cases: DTP human tumour cell line panel, 48 h
[1] = tested on: K562
[2] = tested on: NCI/ADR-RES
[3] = tested on: HOP-92
[4] = tested on: SK-MEL-5
[5] = tested on: SK-MEL-28
[6] = tested on: RXF 393
[7] = tested on: NCI-H226
[8] = tested on: SF-268
[9] = tested on: PC-3
[10] = tested on: EKVX
[11] = tested on: IGROV-1
[12] = tested on: SR
[13] = tested on: Malme-3M
[14] = tested on: Hs-578T
[15] = tested on: M14
[16] = tested on: SK-MEL-2
[17] = tested on: KM12
[18] = tested on: HOP-62
[19] = tested on: HL-60

Measured: GI50

Cn1c(=O)c2nc(CCNC(=O)c3ccccc3)[nH]c2n(C)c1=O
inactive: [1] > 100 µM | [2] > 100 µM | [3] > 100 µM | [4] > 100 µM | [5] > 100 µM | [6] > 100 µM | [7] > 100 µM | [8] > 100 µM | [9] > 100 µM | [10] > 100 µM | [11] > 100 µM | [12] > 100 µM | [13] > 100 µM | [14] > 100 µM | [15] > 100 µM | [16] > 100 µM | [17] > 100 µM | [18] > 100 µM

CNC(=S)N/N=C(\C)c1cc(OC)ccc1O
inactive: [1] 3.22 µM | [2] 28.6 µM | [19] > 31.4 µM | [3] > 100 µM | [4] > 44.3 µM | [5] > 100 µM | [6] > 100 µM | [8] > 100 µM | [9] > 96.4 µM | [10] > 100 µM | [11] > 64.9 µM | [12] 43.5 µM | [13] > 100 µM | [14] > 100 µM | [15] > 92.5 µM | [16] > 100 µM | [17] > 100 µM | [18] > 100 µM

NC(=O)C[S+]([O-])CC(N)C(=O)O (stereo not drawn)
inactive: [1] > 100 µM | [2] > 100 µM | [3] > 100 µM | [4] > 100 µM | [5] > 100 µM | [6] > 100 µM | [7] > 100 µM | [8] > 100 µM | [9] > 100 µM | [10] > 100 µM | [11] > 100 µM | [12] > 100 µM | [13] > 100 µM | [14] > 100 µM | [15] > 100 µM | [16] > 100 µM | [17] > 100 µM | [18] > 100 µM

CN(C)c1cccc2c(S(=O)(=O)NCCN)cccc12 [DANSYL ETHYLENEDIAMINE]
inactive: [1] > 100 µM | [2] > 100 µM | [19] 9.91 µM | [3] > 100 µM | [4] 46.2 µM | [5] > 100 µM | [6] 41.1 µM | [7] > 100 µM | [8] > 100 µM | [9] > 100 µM | [10] > 100 µM | [11] 33.7 µM | [12] > 100 µM | [13] > 100 µM | [14] > 100 µM | [15] > 100 µM | [16] > 100 µM | [17] > 100 µM | [18] > 100 µM
